In paper PMC10307035, “Antiviral activity of singlet oxygen-photogenerating perylene compounds against SARS-CoV-2: Interaction with the viral envelope and photodynamic virion inactivation” (Virus Research, 2023):

Experiments:
[1] = ROS generation rate / quantum yield, DPBF bleaching in methanol; assay type: physicochemical; conditions: in methanol, DPBF trap, 450–470 nm illumination, riboflavin as reference
Text: The ROS generation rate was estimated using the spectrophotometric method, based on the absorption changes of 1,3-diphenylisobenzofuran (DPBF, Sigma Aldrich, Germany) in methanol solution. Irreversible oxidation of DPBF by singlet oxygen results in peroxide formation, and DPBF bleaching. When light of 400–450 nm was used as actinic, DPBF bleaching occurred without any photosensitizer (PS) in solution. Therefore, to study photosensitized ROS generation, we used a white MCWHLP1 LED (Thorlabs, USA) with filters to limit the radiation to the 450–470 nm range (5.5 mW/cm^2).
Spectrophotometric measurements were performed in a Qpod 2e (Quantum Northwest, USA) thermostated cuvette holder at 25 °C with magnetic stirring (500 rpm). Absorption spectra were recorded using a MayaPro spectrophotometer (Ocean Optics, USA) and a stabilized white light source with a SLS201L tungsten lamp (Thorlabs, USA). Illumination was uniform over the entire volume of the cuvette, to prevent artifacts associated with the diffusion of non-reacted components into the illuminated volume of the cuvette. In this case, the rate of irreversible bleaching of DPBF (412 nm) was the same under both continuous and pulsed irradiation with equal total irradiation time. Illumination was performed in a pulsed mode (Fig. S5A), with 1 s of illumination followed by 5 s of dark adaptation, during which the absorption spectrum of the PS-DPBF solution was recorded. Data processing was performed as previously described ([Gvozdev et al., 2020]).

[2] = test system: feline infectious peritonitis virus (FIPV); assay type: cell-based, feline coronavirus (FCoV); conditions: 0–10 µM
[3] = Fluorescence quantum yield determination; assay type: physicochemical; conditions: in DMSO, relative to rhodamin B
Protocol: The samples’ steady-state fluorescence characteristics were measured in L-format using a Chronos DFD Fluorescence spectrometer (ISS, USA) equipped with a 300 W Cermax xenon arc lamp (ISS, USA), a concave holographic grating monochromator, and a PMT detector. The required amount of each sample was diluted in DMSO and measured in a 1-cm quartz cuvette at a constant temperature of 25 °C. The resulting data were evaluated using Vinci software (ISS, USA) and correlated to the utilized optical configuration.
Absorption spectra were measured using a high-performance Specord S 600 diode spectrophotometer (Jena Analyst, DE). The required amount of each sample was diluted in DMSO, added to 1-cm quartz cuvette, and measured within the selected absorbance spectrum range, against pure DMSO as a blank, at a constant temperature of 25 °C. The results were evaluated using WinASPECT® software (Jena Analyst, DE).
Fluorescence quantum yield was determined following a previously described protocol ([Kozma et al., 2005]; [Magde et al., 1999]; [Williams et al., 1983]). The kinetics of the incorporation of compounds into liposome membrane models was determined using steady-state fluorescence spectroscopy at a constant excitation and emission wavelength, according to the corresponding sample excitation and emission maxima. We added 50 μL of LNP suspension to 0.1 mM of the analyte in PBS, and monitored the increase of fluorescence intensity over the time range from 0 to 1400s. The preparation and characterization of the liposomal suspension is described in the supporting information (Fig. S4).
1. Supplementary material and methods
1.1. Fluorescence quantum yield (QY) determination
The steady-state fluorescence and absorption data were used for quantum yield determination. QY was determined relative to a reference compound, rhodamin B. Absorbance in the range of 0.01–0.1 was used to calculate the QY. We plotted two calibration curves of integrated emission fluorescence intensity as a function of sample absorbance. […]

[4] = Spectrofluorometric analysis of interaction with liposomes; assay type: physicochemical; conditions: 10 µM in PBS
[5] = test system: Vero cells; assay: Light-induced cytotoxicity in Vero cells; assay type: cell-based, African Green Monkey; conditions: 0–10 µM, 465–480 nm 10 min, then 24 h in the dark
Protocol: To determine the light-induced cytotoxicity of the tested compounds, Vero cells were cultured for 24 h in 96-well plates to form a confluent monolayer, and then were treated with the tested compounds at concentrations of 0 to 10 µM. Then, the compound-treated cells were irradiated for 10 min at RT with LEDs (465–480 nm) having an approximate power density of 30 mW/cm^2 (device description in Fig. S7). As a negative control, compound-treated cells were incubated for 10 min in the dark at RT. Subsequently, both irradiated and non-irradiated cell monolayers were incubated in the dark at 37 °C for 24 h. Then, the cell culture medium was aspirated and the potential cytotoxicity of the tested perylene derivatives was determined based on cell viability using Cell Counting Kit-8 (Dojindo Molecular Technologies, Munich, Germany) according to the manufacturer's instructions.

## CC(C)(C)C(=O)OCn1c(=O)c(C#Cc2ccc3c4cccc5cccc(c6cccc2c63)c54)cn(CC(=O)N(CCO)CCO)c1=O [Compound 13]
[1]
  φROS (ROS generation quantum yield): 19.1 ± 0.2%
[2]
  replication of FIPV in CRFK cells: potently suppressed the replication
[3]
  fluorescence quantum yield: 90%
[4]; EPC/Chol 70/30 mol% liposomes
  penetration into liposomal membranes (in words): penetrated the liposomal membranes very quickly and efficiently
[4]; at 520 nm, after 1400 s
  steady-state fluorescence signal after mixing with liposomes: about 10^5 CPS
[5]
  effect of blue light irradiation on cytotoxicity: dramatically increased
